Test results: PubChem BioAssay (NCI)
Where “and” joins values, the source holds several entries; their conditions need not be identical. Equal entries are not always repeated.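 Tested at 5 concentrations; 48 h exposure; 96-well plates; endpoints linearly interpolated, else capped at highest concentration. Here, GI50 denotes the concentration required for 50% inhibition of growth. At the TGI there is no net growth.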 Where a SMILES comes first, the peptide text is derived from it. Bridges are numbered along the chain shown (N, C = ends). [ ]: non-standard residue; d: D form. aThr = C[C@H](O)[C@H](N)C(=O)O

Tests used:
Test in all cases: DTP human tumour cell line panel, 48 h
SN12C renal = tested on: SN12C renal
SNB-19 CNS = tested on: SNB-19 CNS
LOX IMVI melanoma = tested on: LOX IMVI melanoma
SF-295 CNS = tested on: SF-295 CNS
IGROV1 ovarian = tested on: IGROV1 ovarian
MCF7 breast = tested on: MCF7 breast
MALME-3M melanoma = tested on: MALME-3M melanoma
RPMI-8226 leukemia = tested on: RPMI-8226 leukemia
SF-268 CNS = tested on: SF-268 CNS
EKVX NSCLC = tested on: EKVX NSCLC

Row | Structure (SMILES) | GI50 (SN12C renal) | TGI (SN12C renal) | GI50 (SNB-19 CNS) | TGI (SNB-19 CNS) | GI50 (LOX IMVI melanoma) | TGI (LOX IMVI melanoma) | GI50 (SF-295 CNS) | GI50 (IGROV1 ovarian) | TGI (IGROV1 ovarian) | GI50 (MCF7 breast) | TGI (MCF7 breast) | GI50 (MALME-3M melanoma) | TGI (MALME-3M melanoma) | GI50 (RPMI-8226 leukemia) | TGI (RPMI-8226 leukemia) | GI50 (SF-268 CNS) | TGI (SF-268 CNS) | GI50 (EKVX NSCLC) | TGI (EKVX NSCLC) | TGI (SF-295 CNS)
1 | CCN(CC)c1ccc2nc3ccc(=[N+](CC)CC)cc-3oc2c1 | 0.153 µM | 15.2 µM | 0.786 µM | > 35.3 µM | 0.11 µM | 1.59 µM | 0.28 µM | 0.107 µM | 0.862 µM | 0.029 µM | 0.276 µM | 0.115 µM | 0.628 µM | 0.264 µM | 20 µM | 0.184 µM | 31.2 µM | 0.292 µM | > 40.7 µM | 
2 | CC(=O)NC1C(O[C@H]2C[C@H]3[C@@H]4CC=C5C[C@@H](O)CC[C@]5(C)[C@H]4CC[C@]3(C)[C@H]2[C@H](C)C(=O)CCC(C)C)OCC(O)C1O (stereo partly drawn) | 8.58 µM | 26.6 µM | 3.31 µM | 11 µM | 1.45 µM | 5.79 µM | 0.5 µM | 3.37 µM | > 42.5 µM | 2.44 µM | 10.4 µM | 2.33 µM | 9.78 µM | 0.593 µM | 2.06 µM | 2.31 µM | 11.2 µM | 1.97 µM | 9.37 µM | 1.23 µM
3 | O=C(O)CN(CCN(CC(=O)O)CC(=O)O)CC(=O)O.[Mn+2] | > 100 µM | > 100 µM | > 100 µM | > 100 µM | > 100 µM | > 100 µM | > 100 µM | > 100 µM | > 100 µM | > 100 µM | > 100 µM | > 100 µM | > 100 µM | > 100 µM | > 100 µM | > 100 µM | > 100 µM | > 100 µM | > 100 µM | > 100 µM
4 | ClCCOCCn1cnc2c(Cl)nc(Cl)nc21 | 16.2 µM | 31.8 µM | 16.4 µM | 30.5 µM | 5.96 µM | 20.1 µM | 14 µM | 3.34 µM | 12.7 µM | 3.57 µM | 21.4 µM | 13.1 µM | 28.2 µM | 18.6 µM | > 100 µM | 6.82 µM | 20.3 µM | 12.5 µM | 27.7 µM | 29.3 µM
5 | Cc1noc(NC(=O)Nc2ccccc2F)c1C#N |  | > 48 µM |  | > 50.3 µM |  | > 100 µM |  |  | > 100 µM |  | > 35.6 µM |  | > 51.9 µM |  | > 100 µM |  | > 48.9 µM |  | 25.1 µM | > 100 µM
6 | CC(C)C[C@@H]1NC(=O)[C@@H]2CCCN2C(=O)[C@@H]2CCCN2C(=O)[C@H](CC(C)C)NC(=O)[C@H](CO)NC(=O)[C@H](CCCCN)NC(=O)[C@H]([C@H](C)O)NC(=O)[C@@H]2CSSC[C@@H](NC1=O)C(=O)N[C@@H](Cc1ccccc1)C(=O)N1CCC[C@H]1C(=O)N[C@@H](CC(=O)O)C(=O)NCC(=O)N[C@@H](CCCN=C(N)N)C(=O)N2 (cyclo(C[aThr]KSLPPL[dC]FPDGR); disulfide 1-9) | > 50 µM | > 50 µM | > 50 µM | > 50 µM | > 50 µM | > 50 µM | > 50 µM | > 46.4 µM | > 50 µM | > 50 µM | > 50 µM | > 50 µM | > 50 µM | > 50 µM | > 50 µM | > 50 µM | > 50 µM | > 50 µM | > 50 µM | > 50 µM
7 | COc1cc2nnc3c4cccnc4[nH]c3c2cc1OC | 1.9 µM and 2.27 µM | 19.2 µM and 8.47 µM | 9.04 µM and 2.77 µM | 42.4 µM and 15.4 µM | 1.43 µM and 1.41 µM | 15.7 µM and 4.69 µM | 9.72 µM and 2.43 µM | 1.02 µM and 1.73 µM | 19.4 µM and 5.83 µM | 0.836 µM and 0.34 µM | 10.9 µM and 2.82 µM | 7.54 µM and 2.28 µM | 22.9 µM and 5.68 µM | 1.45 µM and 0.187 µM |  | 1.48 µM and 0.535 µM | 12.9 µM and 4.53 µM | 3.39 µM and 2.43 µM | 50 µM and 8 µM | 50 µM and 6.92 µM
8 | CCCCS(=O)c1sc2nc(-c3cccs3)cc(-c3ccccc3)c2c1N (stereo not drawn) | 24.9 µM | > 100 µM | 18.7 µM | > 100 µM | 13 µM | > 100 µM | 9.88 µM | 20.3 µM | > 100 µM | 10.4 µM | > 100 µM | 26.1 µM | 75.4 µM | 3.59 µM | 23.7 µM | 23.3 µM | > 100 µM | 9.48 µM | > 100 µM | > 100 µM
9 | C=CCN(CC=C)C(=O)c1cc(C)nc2c1c(=O)n(-c1ccccc1)c(=O)n2CCCN1CCN(c2ccccc2OC)CC1 | > 50 µM | > 50 µM | > 50 µM | > 50 µM | > 50 µM | > 50 µM | > 50 µM | > 50 µM | > 50 µM | > 50 µM | > 50 µM | > 50 µM | > 50 µM | > 50 µM | > 50 µM | > 50 µM | > 50 µM | > 50 µM | > 50 µM | > 50 µM
10 | COc1cc(OC)c(OC)cc1/C=C/c1nc2ccccc2s1 |  | > 100 µM |  | > 100 µM |  | > 100 µM |  |  | > 100 µM |  | > 100 µM |  | > 100 µM |  | > 100 µM |  | > 100 µM |  | > 100 µM | > 100 µM
11 | CC(C)[C@@H]1CC[C@]2(CO2)[C@@H]2C(=O)OCC(C(=O)O)=C[C@H]21 | 0.32 µM | > 20.1 µM | 0.379 µM | > 27.1 µM | 0.331 µM | 1.42 µM | 1 µM | 0.442 µM | 8.73 µM | 0.824 µM | > 100 µM | 0.305 µM | 5.31 µM | 0.24 µM | 0.635 µM | 0.34 µM | > 52.5 µM | 5.17 µM | > 100 µM | > 100 µM
12 | Cn1c(=O)c2nc3sc4c(n3c2n(C)c1=O)C(=O)c1ccccc1C4=O |  | > 87.5 µM |  | > 66 µM |  | > 54.7 µM |  |  | > 69 µM |  | > 62 µM |  | > 100 µM |  | > 83.4 µM |  | > 100 µM |  | > 100 µM | > 100 µM
